Like-named read-outs stand apart in the source and are kept apart here. Non-standard residues stand in square brackets, D forms with d. Residues, ends and D or L forms follow the SMILES beside them. *: point of attachment. Biotin = O=C1N[C@H]2[C@H](CS[C@H]2CCCCC(=O)*)N1; pS = N[C@@H](COP(=O)(O)O)C(=O)O
Target: T1, Recombinant S. cerevisiae Ess1 protein (Saccharomyces cerevisiae, UniProt P22696)
T1 construct: made in house; host or cells: Escherichia coli
T1 sequence (P22696 1-170): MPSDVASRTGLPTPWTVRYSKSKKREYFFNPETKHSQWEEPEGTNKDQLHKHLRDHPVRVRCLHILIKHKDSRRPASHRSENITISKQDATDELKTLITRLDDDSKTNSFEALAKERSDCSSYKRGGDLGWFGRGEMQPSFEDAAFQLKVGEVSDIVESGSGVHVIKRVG
Assay: Biolayer interferometry (BLI) kinetic assays of Ess1/peptide binding
Details: for Ess1 binding (in words) / Kd / kon: BLI; for Ess1 binding (in words): Ess1 3, 10, 30 μM, Figure 6, S1, S3; for kon: slope of kobs vs Ess1 concentration (Fig. S2), read-out: ka (association rate); for koff: read-out: kd (dissociation rate)
Description: Biolayer interferometry (BLI) was measured at 24° with an Octet RED system (FortéBio), essentially as described ([Shah and Duncan 2013]; [Shah et al. 2013]). Peptides were synthesized with N-terminal biotinylation (NEOBioLab). Phosphoserine residues were incorporated during synthesis and all peptides were purified to >95% purity by high-performance liquid chromatography (NEOBioLab). Each peptide included 4-6 N-terminal residues (typically [Gly-Gly-Ser]2) as a flexible linker to facilitate binding of Ess1 protein to the surface-immobilized peptide. BLI assays were carried out in 20 mM Tris-HCl pH 8.0, 1 mg/mL bovine serum albumin (Sigma-Aldrich; A6003-10G). Different peptides were immobilized on separate streptavidin-coated biosensors (FortéBio; cat. no. 18-5019). For each peptide sequence, sensors loaded with phosphorylated or unphosphorylated peptides were assayed in parallel, and the peptide concentrations (50−200 nM) and time of loading were controlled to achieve essentially the same level of peptide signal loaded, regardless of phosphorylation status (e.g., Figure S1). Recombinant S. cerevisiae Ess1 protein was purified from Escherichia coli as described ([Li et al. 2005]). Ess1 was incubated with peptide-loaded and control (no peptide) biosensors to measure kinetics of Ess1/peptide association, and sensors were moved to buffer alone to measure dissociation kinetics. To correct for low but significant nonspecific binding of Ess1 to sensors, data from a sensor without peptide within the same experiment were subtracted for each concentration of Ess1 used. For direct comparison of Ess1 binding to different peptides (Figure 6), signals were normalized for the levels of sensor-loaded peptide (0.2−0.5 nm) between sequential runs within the experiment. Data were analyzed using FortéBio Data Analysis software (Versions 6.4), and by linear and nonlinear regression in Prism (GraphPad, version 4).
To determine whether Ess1 interacts directly with Swi6 and Whi5, we conducted binding assays by using purified Ess1 protein and phospho-Ser-Pro or Ser-Pro peptides corresponding to the NLS motif of Swi6 and both NLS and NES motifs of Whi5. Binding was assayed using BLI ([Shah and Duncan 2013]). In brief, biotinylated peptides corresponding to the NLS or NES motifs were immobilized on streptavidin-coated sensors and binding of purified Ess1 protein was measured using BLI. Ess1 protein binding to immobilized peptide changes the optical interference at the sensor surface, measured as nm of spectral shift. Using this approach, we monitored the kinetics of binding and dissociation of Ess1. […] Binding was dependent on Ess1 concentration (3, 10, and 30 μM were used).
Figure 6 In vitro binding of Ess1 to Swi6 and Whi5 peptides. Kinetics for binding and dissociation of purified Ess1 protein with NLS and NES peptides were monitored using biolayer interferometry (BLI). Sensor-immobilized peptides: (A) carboxy-terminal domain (CTD) of RNA polymerase II (RNAPII), (B) Swi6-NLS, (C) Whi5-NLS, and (D) Whi5-NES. Data for phosphorylated peptides (P) are shown in black, unphosphorylated peptides (Un) in blue, and fitting curves are shown in red. Biotinylated peptides were loaded on individual streptavidin sensors, followed by a wash to remove unbound peptide. To measure Ess1 binding, sensors were transferred from buffer alone to buffer containing 3, 10, or 30 μM Ess1 protein (time zero) as indicated. After 300 sec, sensors were transferred to fresh buffer (without Ess1) to monitor Ess1 dissociation. Examples of raw data for these experiments, including the peptide-loading step and control sensors with no peptide are shown in Figure S1.
Table S4 Fitting Results for BLI Kinetic Assays
Peptide ka (M-1s-1) ±SD kd (s-1) ±SD %Rmax ±SD
Summary of results for fitting curves of BLI kinetic data (Fig. 6). The dissociation rate (kd) is an average (±standard deviation
(SD)) for fits at 3 concentrations of each peptide (3, 10, 30 µM). […]

[1] = estimated from binding isotherm F = E/(E + Kapp) with signal at 30 μM Ess1 relative to saturated signal of the cognate phosphorylated peptide, read-out: Kapp (estimated, unphosphorylated peptides)
[2] = 24°, 20 mM Tris-HCl pH 8.0, 1 mg/mL BSA, plateau binding responses vs Ess1 concentration (3, 10, 30 μM) fit to hyperbolic binding isotherm, read-out: KappEq (Equilibrium)

For “H3 aa1-21 unphosphorylated: "nonsubstrate" peptide (H3 aa1-21) in the unphosphorylated form [reference compound]”, the “Ess1 binding (in words)” value was “did not bind”.

`CC(C)C[C@H](NC(=O)[C@H](CCC(=O)O)NC(=O)[C@H](CCCNC(=N)N)NC(=O)[C@H](CO)NC(=O)CNC(=O)CNC(=O)[C@H](CO)NC(=O)CNC(=O)CNC(=O)CCCC[C@@H]1SC[C@@H]2NC(=O)N[C@@H]21)C(=O)NCC(=O)N[C@@H](CO)C(=O)N1CCC[C@H]1C(=O)N[C@@H](CC(C)C)C(=O)N[C@@H](CCCCN)C(=O)N[C@@H](CCCCN)C(=O)O` [Swi6-NLS] (Biotin-GGSGGSRELGSPLKK-OH; N-terminus and C-terminus assumed) was tested, and the Kd [1] was over 100 µM.

Compound `C[C@@H](O)[C@H](NC(=O)[C@@H]1CCCN1C(=O)[C@H](CO)NC(=O)[C@H](Cc1ccc(O)cc1)NC(=O)[C@H](CO)NC(=O)CNC(=O)CNC(=O)[C@H](CO)NC(=O)CNC(=O)CN)C(=O)N[C@@H](COP(=O)(O)O)C(=O)N1CCC[C@H]1C(=O)N[C@@H](CO)C(=O)N[C@@H](Cc1ccc(O)cc1)C(=O)N[C@@H](CO)C(=O)O` [CTD-P, reference compound] (H-GGSGGSYSPT[pS]PSYS-OH) has a Kd [2] of 1.65 ± 0.06 µM, a kon of 27100 M⁻¹ s⁻¹ and a koff of 0.0923 s⁻¹.

For `CC(C)C[C@H](NC(=O)[C@H](CCCNC(=N)N)NC(=O)[C@@H]1CCCN1C(=O)[C@H](COP(=O)(O)O)NC(=O)[C@@H]1CCCN1C(=O)[C@H](COP(=O)(O)O)NC(=O)[C@H](CC(C)C)NC(=O)[C@H](Cc1ccccc1)NC(=O)CNC(=O)CNC(=O)[C@H](CO)NC(=O)CNC(=O)CN)C(=O)N[C@@H](CCCNC(=N)N)C(=O)N[C@@H](COP(=O)(O)O)C(=O)N1CCC[C@H]1C(=O)N1CCC[C@H]1C(=O)N[C@H](C(=O)O)[C@@H](C)O` [Whi5-NES-P] (H-GGSGGFL[pS]P[pS]PRLR[pS]PPT-OH), the Kd [2] was 1.13 ± 0.18 µM, the kon was 17500 M⁻¹ s⁻¹ and the koff was 0.0503 s⁻¹.

Compound `CC[C@H](C)[C@H](NC(=O)CNC(=O)[C@@H]1CCCN1C(=O)[C@@H]1CCCN1C(=O)[C@H](CO)NC(=O)[C@@H]1CCCN1C(=O)[C@@H]1CCCN1C(=O)[C@H](CO)NC(=O)[C@@H]1CCCN1C(=O)[C@@H](NC(=O)CNC(=O)CNC(=O)[C@H](CO)NC(=O)CNC(=O)CNC(=O)CCCC[C@@H]1SC[C@@H]2NC(=O)N[C@@H]21)[C@@H](C)O)C(=O)O` [Whi5-NLS] (Biotin-GGSGGTPSPPSPPGI-OH; N-terminus and C-terminus assumed) has a Kd [1] of over 25 µM.

`CC[C@H](C)[C@H](NC(=O)CNC(=O)[C@@H]1CCCN1C(=O)[C@@H]1CCCN1C(=O)[C@H](COP(=O)(O)O)NC(=O)[C@@H]1CCCN1C(=O)[C@@H]1CCCN1C(=O)[C@H](COP(=O)(O)O)NC(=O)[C@@H]1CCCN1C(=O)[C@@H](NC(=O)CNC(=O)CNC(=O)[C@H](CO)NC(=O)CNC(=O)CN)[C@@H](C)O)C(=O)O` [Whi5-NLS-P] (H-GGSGGTP[pS]PP[pS]PPGI-OH) showed a Kd [2] of 0.48 ± 0.46 µM, a kon of 22800 M⁻¹ s⁻¹ and a koff of 0.0722 s⁻¹.

In the case of “H3 aa1-21 (Ser10-P): "nonsubstrate" peptide (H3 aa1-21) in the phosphorylated form (Ser10-P) [reference compound]”, the “Ess1 binding (in words)” value is reported as “did not bind”.

In the case of `CC(C)C[C@H](NC(=O)[C@H](CCC(=O)O)NC(=O)[C@H](CCCNC(=N)N)NC(=O)[C@H](CO)NC(=O)CNC(=O)CNC(=O)[C@H](CO)NC(=O)CNC(=O)CN)C(=O)NCC(=O)N[C@@H](COP(=O)(O)O)C(=O)N1CCC[C@H]1C(=O)N[C@@H](CC(C)C)C(=O)N[C@@H](CCCCN)C(=O)N[C@@H](CCCCN)C(=O)O` [Swi6-NLS-P] (H-GGSGGSRELG[pS]PLKK-OH), the Kd [2] is reported as 10.1 ± 5.1 µM, the kon is reported as 25100 M⁻¹ s⁻¹ and the koff is reported as 0.254 s⁻¹.

In the case of `CC(C)C[C@H](NC(=O)[C@H](CCCNC(=N)N)NC(=O)[C@@H]1CCCN1C(=O)[C@H](CO)NC(=O)[C@@H]1CCCN1C(=O)[C@H](CO)NC(=O)[C@H](CC(C)C)NC(=O)[C@H](Cc1ccccc1)NC(=O)CNC(=O)CNC(=O)[C@H](CO)NC(=O)CNC(=O)CNC(=O)CCCC[C@@H]1SC[C@@H]2NC(=O)N[C@@H]21)C(=O)N[C@@H](CCCNC(=N)N)C(=O)N[C@@H](CO)C(=O)N1CCC[C@H]1C(=O)N1CCC[C@H]1C(=O)N[C@H](C(=O)O)[C@@H](C)O` [Whi5-NES] (Biotin-GGSGGFLSPSPRLRSPPT-OH; N-terminus and C-terminus assumed), the Kd [1] is reported as over 1500 µM.

With `C[C@@H](O)[C@H](NC(=O)[C@@H]1CCCN1C(=O)[C@H](CO)NC(=O)[C@H](Cc1ccc(O)cc1)NC(=O)[C@H](CO)NC(=O)CNC(=O)CNC(=O)[C@H](CO)NC(=O)CNC(=O)CNC(=O)CCCC[C@@H]1SC[C@@H]2NC(=O)N[C@@H]21)C(=O)N[C@@H](CO)C(=O)N1CCC[C@H]1C(=O)N[C@@H](CO)C(=O)N[C@@H](Cc1ccc(O)cc1)C(=O)N[C@@H](CO)C(=O)O` [CTD, reference compound] (Biotin-GGSGGSYSPTSPSYS-OH; N-terminus and C-terminus assumed) the “Ess1 binding (in words)” value was “very little binding” and the Kd [1] was over 300 µM.
